{"source": "patent US11542240B2", "about": "“STK19 inhibitors for treatment of cancer” (TRUSTEES OF BOSTON UNIVERSITY, priority 2018, dated 2023)", "test_in_all_cases": "biochemical", "type_in_all_cases": "binding", "key": {"[1]": {"biological_target": "panel of 468 diverse kinases (Homo sapiens, UniProt P42336, H1047Y)", "settings": "PIK3CA(H1047Y); 1000 nM; read-out: Percent Control"}, "[2]": {"biological_target": "panel of 468 diverse kinases (Homo sapiens, UniProt P21802)", "sequence (P21802 22-821 limits assumed)": "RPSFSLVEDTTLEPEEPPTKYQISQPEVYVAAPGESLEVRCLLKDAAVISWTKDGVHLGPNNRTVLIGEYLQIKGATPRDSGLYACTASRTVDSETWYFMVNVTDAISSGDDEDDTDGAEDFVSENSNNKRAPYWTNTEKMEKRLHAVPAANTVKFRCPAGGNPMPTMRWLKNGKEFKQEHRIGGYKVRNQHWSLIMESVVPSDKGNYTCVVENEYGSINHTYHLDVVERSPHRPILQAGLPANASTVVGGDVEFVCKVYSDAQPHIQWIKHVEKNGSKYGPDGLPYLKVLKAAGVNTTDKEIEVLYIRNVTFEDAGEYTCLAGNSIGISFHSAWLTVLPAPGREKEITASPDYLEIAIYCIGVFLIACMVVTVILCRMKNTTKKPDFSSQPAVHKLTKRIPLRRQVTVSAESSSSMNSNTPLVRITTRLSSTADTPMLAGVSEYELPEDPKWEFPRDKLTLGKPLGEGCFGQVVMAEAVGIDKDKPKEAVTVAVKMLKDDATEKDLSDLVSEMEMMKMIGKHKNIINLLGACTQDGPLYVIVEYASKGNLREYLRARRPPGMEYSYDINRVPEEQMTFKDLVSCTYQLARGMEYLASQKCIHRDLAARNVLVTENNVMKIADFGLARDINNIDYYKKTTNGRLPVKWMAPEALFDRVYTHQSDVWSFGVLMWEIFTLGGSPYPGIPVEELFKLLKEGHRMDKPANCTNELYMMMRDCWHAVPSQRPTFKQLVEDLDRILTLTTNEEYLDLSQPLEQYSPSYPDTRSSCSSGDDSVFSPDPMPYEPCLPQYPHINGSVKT", "settings": "FGFR2; 1000 nM; read-out: Percent Control"}, "[3]": {"biological_target": "panel of 468 diverse kinases (Homo sapiens, UniProt Q86YV6)", "settings": "MYLK4; 1000 nM; read-out: Percent Control"}, "[4]": {"biological_target": "panel of 468 diverse kinases (Homo sapiens, UniProt P42336, E545A)", "settings": "PIK3CA(E545A); 1000 nM; read-out: Percent Control"}, "[5]": {"biological_target": "panel of 468 diverse kinases (Homo sapiens, UniProt Q96PN8)", "settings": "TS SK3; 1000 nM; read-out: Percent Control"}, "[6]": {"biological_target": "panel of 468 diverse kinases (Homo sapiens, UniProt P53355)", "settings": "DAPK1; 1000 nM; read-out: Percent Control"}, "[7]": {"biological_target": "panel of 468 diverse kinases (Homo sapiens, UniProt O15075)", "settings": "DCAMKL1; 1000 nM; read-out: Percent Control"}, "[8]": {"biological_target": "panel of 468 diverse kinases (Homo sapiens, UniProt P48729)", "sequence (P48729 2-337 limits assumed)": "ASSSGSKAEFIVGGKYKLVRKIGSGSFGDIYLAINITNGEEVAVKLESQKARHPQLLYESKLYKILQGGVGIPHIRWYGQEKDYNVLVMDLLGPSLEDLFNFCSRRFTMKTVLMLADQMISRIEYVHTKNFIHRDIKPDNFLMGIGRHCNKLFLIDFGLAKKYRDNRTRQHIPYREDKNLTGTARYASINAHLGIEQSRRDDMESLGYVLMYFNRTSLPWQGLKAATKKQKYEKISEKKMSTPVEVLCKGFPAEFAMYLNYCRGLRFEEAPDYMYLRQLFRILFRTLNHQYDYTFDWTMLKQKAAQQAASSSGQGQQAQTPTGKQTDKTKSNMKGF", "settings": "CSNKIV1; 1000 nM; read-out: Percent Control"}, "[9]": {"biological_target": "panel of 468 diverse kinases (Homo sapiens, UniProt P54760)", "sequence (P54760 16-987 limits assumed)": "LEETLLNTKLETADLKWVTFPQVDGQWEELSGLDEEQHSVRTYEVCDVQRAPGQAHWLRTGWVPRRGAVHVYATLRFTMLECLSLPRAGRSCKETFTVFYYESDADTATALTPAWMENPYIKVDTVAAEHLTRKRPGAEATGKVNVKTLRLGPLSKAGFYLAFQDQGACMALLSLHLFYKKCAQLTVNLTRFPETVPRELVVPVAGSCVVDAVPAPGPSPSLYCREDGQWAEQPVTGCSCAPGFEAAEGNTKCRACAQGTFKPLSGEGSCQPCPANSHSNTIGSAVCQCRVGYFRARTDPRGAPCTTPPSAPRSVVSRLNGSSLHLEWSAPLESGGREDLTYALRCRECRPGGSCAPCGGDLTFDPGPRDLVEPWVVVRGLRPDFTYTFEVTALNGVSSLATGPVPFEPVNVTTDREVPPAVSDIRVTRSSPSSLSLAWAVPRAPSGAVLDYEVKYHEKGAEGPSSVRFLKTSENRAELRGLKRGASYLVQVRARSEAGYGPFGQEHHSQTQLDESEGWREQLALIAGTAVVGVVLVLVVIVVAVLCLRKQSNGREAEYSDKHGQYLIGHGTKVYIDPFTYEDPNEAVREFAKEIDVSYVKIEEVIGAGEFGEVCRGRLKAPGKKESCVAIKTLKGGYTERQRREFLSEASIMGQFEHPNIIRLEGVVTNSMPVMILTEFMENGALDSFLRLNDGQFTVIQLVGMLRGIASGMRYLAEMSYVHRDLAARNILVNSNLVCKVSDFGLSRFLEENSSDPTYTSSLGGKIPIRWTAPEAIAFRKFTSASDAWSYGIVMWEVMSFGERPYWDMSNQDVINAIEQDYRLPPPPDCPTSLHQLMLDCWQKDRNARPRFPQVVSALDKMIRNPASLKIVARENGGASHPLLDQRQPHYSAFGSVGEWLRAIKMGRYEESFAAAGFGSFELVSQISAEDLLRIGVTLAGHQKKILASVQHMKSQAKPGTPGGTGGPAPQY", "settings": "EPHB4; 1000 nM; read-out: Percent Control"}, "[10]": {"biological_target": "panel of 468 diverse kinases (Homo sapiens, UniProt Q9UPE1)", "settings": "SRPK3; 1000 nM; read-out: Percent Control"}, "[11]": {"biological_target": "panel of 468 diverse kinases (Homo sapiens, UniProt P36897)", "sequence (P36897 34-503 limits assumed)": "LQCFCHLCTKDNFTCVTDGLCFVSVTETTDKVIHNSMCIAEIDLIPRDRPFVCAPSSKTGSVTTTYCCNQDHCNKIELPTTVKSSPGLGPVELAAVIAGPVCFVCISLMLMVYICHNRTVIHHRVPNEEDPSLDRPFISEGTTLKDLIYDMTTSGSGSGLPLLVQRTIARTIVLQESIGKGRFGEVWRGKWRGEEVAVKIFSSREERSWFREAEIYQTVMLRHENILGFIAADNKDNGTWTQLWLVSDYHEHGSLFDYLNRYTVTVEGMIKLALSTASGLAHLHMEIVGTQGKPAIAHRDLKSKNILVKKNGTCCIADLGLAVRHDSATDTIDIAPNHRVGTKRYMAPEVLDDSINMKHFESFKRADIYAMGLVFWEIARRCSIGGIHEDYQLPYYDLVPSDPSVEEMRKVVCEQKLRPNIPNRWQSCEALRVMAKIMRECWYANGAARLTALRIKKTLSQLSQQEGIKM", "settings": "TGFBR1; 1000 nM; read-out: Percent Control"}, "[12]": {"biological_target": "panel of 468 diverse kinases (Homo sapiens, UniProt P32298)", "settings": "GRK4; 1000 nM; read-out: Percent Control"}, "[13]": {"biological_target": "panel of 468 diverse kinases (Homo sapiens, UniProt P53779)", "settings": "JNK3; 1000 nM; read-out: Percent Control"}, "[14]": {"biological_target": "panel of 468 diverse kinases (Homo sapiens, UniProt P15056, V600E)", "sequence (P15056 2-766 V600E limits assumed)": "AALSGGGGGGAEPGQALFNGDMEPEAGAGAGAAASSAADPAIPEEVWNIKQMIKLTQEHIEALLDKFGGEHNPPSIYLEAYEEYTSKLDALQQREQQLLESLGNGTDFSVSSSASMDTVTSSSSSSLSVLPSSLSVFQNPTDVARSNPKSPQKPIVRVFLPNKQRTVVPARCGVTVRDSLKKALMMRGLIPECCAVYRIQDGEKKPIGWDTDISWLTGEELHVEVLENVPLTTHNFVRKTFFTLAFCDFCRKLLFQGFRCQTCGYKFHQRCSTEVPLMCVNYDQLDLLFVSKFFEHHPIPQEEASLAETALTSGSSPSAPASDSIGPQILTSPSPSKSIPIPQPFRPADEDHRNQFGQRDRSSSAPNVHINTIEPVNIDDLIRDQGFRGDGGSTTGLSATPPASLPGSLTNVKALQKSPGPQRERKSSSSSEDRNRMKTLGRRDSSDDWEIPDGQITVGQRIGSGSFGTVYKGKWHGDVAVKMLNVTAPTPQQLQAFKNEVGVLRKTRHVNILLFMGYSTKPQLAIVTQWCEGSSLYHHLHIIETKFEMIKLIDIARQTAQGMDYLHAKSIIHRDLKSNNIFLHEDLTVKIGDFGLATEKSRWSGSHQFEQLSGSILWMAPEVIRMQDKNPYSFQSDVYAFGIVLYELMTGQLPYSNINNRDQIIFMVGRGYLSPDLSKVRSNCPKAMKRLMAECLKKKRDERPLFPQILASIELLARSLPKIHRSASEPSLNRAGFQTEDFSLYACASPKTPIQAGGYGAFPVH", "settings": "BRAF(V600E); 1000 nM; read-out: Percent Control"}, "[15]": {"biological_target": "panel of 468 diverse kinases (Homo sapiens, UniProt P22607)", "settings": "FGFR3; 1000 nM; read-out: Percent Control"}, "[16]": {"biological_target": "panel of 468 diverse kinases (Homo sapiens, UniProt Q56UN5)", "settings": "YSK4; 1000 nM; read-out: Percent Control"}, "[17]": {"biological_target": "panel of 468 diverse kinases (Homo sapiens, UniProt Q04771)", "sequence (Q04771 21-509 limits assumed)": "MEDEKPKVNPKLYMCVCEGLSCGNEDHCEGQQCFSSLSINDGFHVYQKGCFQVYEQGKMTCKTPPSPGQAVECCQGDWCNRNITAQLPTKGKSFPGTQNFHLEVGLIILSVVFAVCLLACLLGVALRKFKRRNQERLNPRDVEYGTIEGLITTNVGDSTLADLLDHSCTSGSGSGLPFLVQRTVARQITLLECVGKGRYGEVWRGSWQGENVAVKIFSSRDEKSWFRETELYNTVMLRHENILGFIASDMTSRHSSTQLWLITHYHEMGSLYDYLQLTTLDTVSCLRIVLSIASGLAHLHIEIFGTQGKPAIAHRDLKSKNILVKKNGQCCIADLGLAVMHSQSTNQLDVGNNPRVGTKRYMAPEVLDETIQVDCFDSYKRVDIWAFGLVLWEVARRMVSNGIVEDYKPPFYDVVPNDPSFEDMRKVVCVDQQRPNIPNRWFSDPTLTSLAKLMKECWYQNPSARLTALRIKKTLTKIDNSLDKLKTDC", "settings": "ACVR1; 1000 nM; read-out: Percent Control"}, "[18]": {"biological_target": "panel of 468 diverse kinases (Homo sapiens, UniProt Q86Z02)", "settings": "HIPK1; 1000 nM; read-out: Percent Control"}, "[19]": {"biological_target": "panel of 468 diverse kinases (Homo sapiens, UniProt Q07002)", "settings": "PCTK3; 1000 nM; read-out: Percent Control"}, "[20]": {"biological_target": "panel of 468 diverse kinases (Homo sapiens, UniProt Q96SB4)", "settings": "SRPK1; 1000 nM; read-out: Percent Control"}, "[21]": {"biological_target": "panel of 468 diverse kinases (Homo sapiens, UniProt P36888, R834Q)", "settings": "FLT3(R834Q); 1000 nM; read-out: Percent Control"}, "[22]": {"biological_target": "panel of 468 diverse kinases (Homo sapiens, UniProt Q9NYY3)", "settings": "PLK2; 1000 nM; read-out: Percent Control"}, "[23]": {"biological_target": "panel of 468 diverse kinases (Homo sapiens, UniProt Q9UIK4)", "settings": "DAPK2; 1000 nM; read-out: Percent Control"}, "[24]": {"biological_target": "panel of 468 diverse kinases (Homo sapiens, UniProt O95382)", "settings": "ASK2; 1000 nM; read-out: Percent Control"}, "[25]": {"biological_target": "panel of 468 diverse kinases (Homo sapiens, UniProt Q02750)", "settings": "MEK1; 1000 nM; read-out: Percent Control"}, "[26]": {"biological_target": "panel of 468 diverse kinases (Homo sapiens, UniProt Q8NI60)", "sequence (Q8NI60 163-647 limits assumed)": "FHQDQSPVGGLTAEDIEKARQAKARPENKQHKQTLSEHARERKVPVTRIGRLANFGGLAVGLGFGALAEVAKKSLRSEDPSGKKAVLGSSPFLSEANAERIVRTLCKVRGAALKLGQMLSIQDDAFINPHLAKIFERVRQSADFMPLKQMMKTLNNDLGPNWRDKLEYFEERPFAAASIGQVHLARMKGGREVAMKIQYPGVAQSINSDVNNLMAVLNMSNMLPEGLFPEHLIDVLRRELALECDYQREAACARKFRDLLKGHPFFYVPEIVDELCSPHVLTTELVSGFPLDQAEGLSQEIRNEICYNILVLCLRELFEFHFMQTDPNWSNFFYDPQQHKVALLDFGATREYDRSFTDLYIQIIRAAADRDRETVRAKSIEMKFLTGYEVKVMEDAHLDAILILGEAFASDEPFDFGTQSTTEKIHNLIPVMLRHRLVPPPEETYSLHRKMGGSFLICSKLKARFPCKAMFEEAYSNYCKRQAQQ", "settings": "ADCK3; 1000 nM; read-out: Percent Control"}, "[27]": {"biological_target": "panel of 468 diverse kinases (Homo sapiens, UniProt Q9Y6E0)", "settings": "MST3; 1000 nM; read-out: Percent Control"}, "[28]": {"biological_target": "panel of 468 diverse kinases (Homo sapiens, UniProt Q15208)", "sequence (Q15208 2-465 limits assumed)": "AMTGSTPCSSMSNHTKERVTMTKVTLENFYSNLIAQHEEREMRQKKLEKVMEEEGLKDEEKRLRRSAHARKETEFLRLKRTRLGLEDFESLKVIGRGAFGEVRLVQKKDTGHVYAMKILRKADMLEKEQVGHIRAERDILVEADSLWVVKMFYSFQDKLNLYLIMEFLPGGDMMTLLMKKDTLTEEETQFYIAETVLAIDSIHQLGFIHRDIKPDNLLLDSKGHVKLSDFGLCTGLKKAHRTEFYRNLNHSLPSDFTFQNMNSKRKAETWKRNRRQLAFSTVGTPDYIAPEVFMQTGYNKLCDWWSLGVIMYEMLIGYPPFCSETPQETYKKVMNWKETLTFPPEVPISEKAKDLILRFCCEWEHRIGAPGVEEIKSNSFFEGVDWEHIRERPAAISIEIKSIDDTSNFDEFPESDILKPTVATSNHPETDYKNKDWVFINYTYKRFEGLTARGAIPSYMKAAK", "settings": "NDR1; 1000 nM; read-out: Percent Control"}, "[29]": {"biological_target": "panel of 468 diverse kinases (Homo sapiens, UniProt P49674)", "settings": "CSNK1E; 1000 nM; read-out: Percent Control"}, "[30]": {"biological_target": "panel of 468 diverse kinases (Homo sapiens, UniProt P25098)", "settings": "GRK2; 1000 nM; read-out: Percent Control"}, "[31]": {"biological_target": "panel of 468 diverse kinases (Homo sapiens, UniProt P29597)", "settings": "1000 nM, read-out: Percent Control"}}, "note": "Where two headings read alike, the source gives them in different places."}
{"smiles": "COc1cc2nc(NC3CC3)nc(NC3CCN(C(C)C)CC3)c2cc1OC", "note": "[Formula IV]", "values": [{"measurement": "remaining activity at 1 µM", "setting": "[1]", "value": 91, "unit": "%"}, {"measurement": "remaining activity at 1 µM", "setting": "[2]", "value": 100, "unit": "%"}, {"measurement": "remaining activity at 1 µM", "setting": "[3]", "value": 93, "unit": "%"}, {"measurement": "remaining activity at 1 µM", "setting": "[4]", "value": 89, "unit": "%"}, {"measurement": "remaining activity at 1 µM", "setting": "[5]", "value": 96, "unit": "%"}, {"measurement": "remaining activity at 1 µM", "setting": "[6]", "value": 99, "unit": "%"}, {"measurement": "remaining activity at 1 µM", "setting": "[7]", "value": 53, "unit": "%"}, {"measurement": "remaining activity at 1 µM", "setting": "[8]", "value": 74, "unit": "%"}, {"measurement": "remaining activity at 1 µM", "setting": "[9]", "value": 100, "unit": "%"}, {"measurement": "remaining activity at 1 µM", "setting": "[10]", "value": 100, "unit": "%"}, {"measurement": "remaining activity at 1 µM", "setting": "[11]", "value": 82, "unit": "%"}, {"measurement": "remaining activity at 1 µM", "setting": "[12]", "value": 100, "unit": "%"}, {"measurement": "remaining activity at 1 µM", "setting": "[13]", "value": 100, "unit": "%"}, {"measurement": "remaining activity at 1 µM", "setting": "[14]", "value": 89, "unit": "%"}, {"measurement": "remaining activity at 1 µM", "setting": "[15]", "value": 100, "unit": "%"}, {"measurement": "remaining activity at 1 µM", "setting": "[16]", "value": 78, "unit": "%"}, {"measurement": "remaining activity at 1 µM", "setting": "[17]", "value": 100, "unit": "%"}, {"measurement": "remaining activity at 1 µM", "setting": "[18]", "value": 100, "unit": "%"}, {"measurement": "remaining activity at 1 µM", "setting": "[19]", "value": 86, "unit": "%"}, {"measurement": "remaining activity at 1 µM", "setting": "[20]", "value": 97, "unit": "%"}, {"measurement": "remaining activity at 1 µM", "setting": "[21]", "value": 40, "unit": "%"}, {"measurement": "remaining activity at 1 µM", "setting": "[22]", "value": 55, "unit": "%"}, {"measurement": "remaining activity at 1 µM", "setting": "[23]", "value": 93, "unit": "%"}, {"measurement": "remaining activity at 1 µM", "setting": "[24]", "value": 93, "unit": "%"}, {"measurement": "remaining activity at 1 µM", "setting": "[25]", "value": 63, "unit": "%"}, {"measurement": "remaining activity at 1 µM", "setting": "[26]", "value": 100, "unit": "%"}, {"measurement": "remaining activity at 1 µM", "setting": "[27]", "value": 96, "unit": "%"}, {"measurement": "remaining activity at 1 µM", "setting": "[28]", "value": 81, "unit": "%"}, {"measurement": "remaining activity at 1 µM", "setting": "[29]", "value": 100, "unit": "%"}, {"measurement": "remaining activity at 1 µM", "setting": "[30]", "value": 83, "unit": "%"}, {"measurement": "remaining activity at 1 µM", "setting": "[31]; TYK2(JH1domain-catalytic)", "value": 37, "unit": "%"}, {"measurement": "remaining activity at 1 µM", "setting": "[31]; TYK2(JH2domain-pseudokinase)", "value": 79, "unit": "%"}]}
